Common to all, as to experiment: spot-on-lawn antimicrobial activity test
Assay type in all cases: cell-based

Assay [1] concerns Escherichia coli ATCC 25922. The method, then:
(§1) In order to evaluate the antimicrobial activity of the purified antimicrobial peptides PG1 and PMAP36 according to the embodiment of the present invention, a spot-on-lawn test was carried out using E. coli ATCC 25922, Pseudomonas aeruginosa ATCC 27853, and Staphylococcus aureus ATCC 29213.

Assay [2] concerns Staphylococcus aureus ATCC 29213. As to the method: as §1
Assay [3] deals with Pseudomonas aeruginosa ATCC 27853. As to the method: as §1

This note sets out measurements from patent US11230575B2, “Insoluble fusion protein comprising antimicrobial peptide and method for producing antimicrobial peptide using same” (Konkuk University Industrial Cooperation Corp., priority 2016, dated 2022).

With “Protegrin 1 (RGGRLCYCRRRFCVCVGRG) [PG1, recombinantly produced antimicrobial peptide with anti-parallel beta-hairpin structure stabilized by two disulfide bonds, first discovered in pig leucocytes]”, the figures for the “Antimicrobial activity assay for the recombinant AMP produced” value in assay [1], in assay [2] and in assay [3] were 7 µg/mL, 10 µg/mL and 15 µg/mL, respectively.
“pig myeloid antibacterial peptide36 (GRFRRLRKKTRKRLKKIGKVLKWIPPIVGSIPLGCG; listed as Sus scrofa) [PMAP36, recombinantly produced antimicrobial peptide having a helix structure]”: the “Antimicrobial activity assay for the recombinant AMP produced” value in assay [1] stood at 10 µg/mL; in assay [2], 9 µg/mL; in assay [3] it was 11 µg/mL.
